{"source": "patent US12533357B2", "about": "“Treatment for acute myeloid leukemia or myelodysplastic syndrome” (UNIVERSITY HEALTH NETWORK, priority 2019, dated 2026)", "key": {"[1]": {"assay": "Phase 1 dose-escalation study (NCT03187288)", "type": "in vivo, human", "protocol": "This study (NCT number: NCT03187288) is a multi-center, phase 1, dose-escalation trial designed to assess the safety, tolerability, pharmacokinetics, and clinical benefit of treatment with Compound (I) fumarate administered orally over a range of doses in patients with acute myeloid leukemia (AML) or myelodysplastic syndrome (MDS) that is relapsed or refractory to current treatment or for which no curative therapy exists.\nResults: 9 patients with relapsed or refractory AML were treated with escalating doses of Compound (I) (64 mg to 128 mg) administered orally once daily. Among them, 3 patients were dosed at 64 mg, 4 patients were dosed at 96 mg, and 2 patients were dosed at 128 mg. Of six patients evaluable for response, two (33%) achieved complete remission (CR), and 3 patients (50%) had stable disease (with one patient having a 78% reduction in marrow blast count). The dose limiting toxicity (DLT) was determined to be colitis at the 128 mg dose level. […] However, only 4 patients were enrolled at the 96 mg dose level before the study was paused for enrollment and was amended."}, "[2]": {"system": "KOPN-8", "assay": "In vitro cytotoxicity (IC50) assay, alamarBlue", "type": "cell-based", "details": "KOPN-8, B-ALL", "protocol": "(§1) Cells were seeded in triplicate at 10,000 per 80 uL, into 96-well plates 24 hours before compound overlay and cultured at 37° C. and 5% CO2. Compound (I) was prepared as a 10 mM stock in 100% DMSO and diluted with RPMI 1640 cell growth medium containing 10% FBS such that the final concentrations ranged from 50 pM to 15 uM. Aliquots (20 uL) from each concentration were overlaid to 80 uL of pre-seeded cells to achieve final concentrations of 10 pM to 3 uM. After 3 days, cell viability in each well was assessed by alamarBlue assay according to the manufacturer's instruction (ThermoFisher Scientific). Absorbance was read at 570 nm using a SpectraPlus microplate reader (Molecular Devices Corporation). alamarBlue absorbance values were adjusted by subtracting the average of the baseline readings from untreated cells assessed one day after cell seeding. The percentage (%) of relative inhibition of cell viability was calculated by comparing to DMSO-treated cells. IC50s were calculated using GraphPad PRISM software (GraphPad Software Inc.)."}, "[3]": {"system": "NB4", "assay": "In vitro cytotoxicity (IC50) assay, alamarBlue", "type": "cell-based", "details": "NB4, AML M3", "protocol": "as §1"}, "[4]": {"system": "JURKAT", "assay": "In vitro cytotoxicity (IC50) assay, alamarBlue", "type": "cell-based", "details": "T-ALL", "protocol": "as §1"}, "[5]": {"system": "HL-60", "assay": "In vitro cytotoxicity (IC50) assay, alamarBlue", "type": "cell-based", "details": "HL-60, AML M2", "protocol": "as §1"}, "[6]": {"system": "OCI-LY10", "assay": "In vitro cytotoxicity (IC50) assay, alamarBlue", "type": "cell-based", "details": "OCI-LY10, NHL ABC-DLBCL", "protocol": "as §1"}, "[7]": {"system": "TF-1", "assay": "In vitro cytotoxicity (IC50) assay, alamarBlue", "type": "cell-based", "details": "TF-1, AML M6", "protocol": "as §1"}, "[8]": {"system": "NALM-16", "assay": "In vitro cytotoxicity (IC50) assay, alamarBlue", "type": "cell-based", "details": "NALM-16, B-ALL", "protocol": "as §1"}, "[9]": {"system": "OCI-AML2", "assay": "In vitro cytotoxicity (IC50) assay, alamarBlue", "type": "cell-based", "details": "OCI-AML2, AML M4", "protocol": "as §1"}, "[10]": {"system": "THP-1", "assay": "In vitro cytotoxicity (IC50) assay, alamarBlue", "type": "cell-based", "details": "THP-1, AML M5", "protocol": "as §1"}, "[11]": {"system": "RS4;11", "assay": "In vitro cytotoxicity (IC50) assay, alamarBlue", "type": "cell-based", "details": "RS4;11, B-ALL", "protocol": "as §1"}, "[12]": {"system": "REH", "assay": "In vitro cytotoxicity (IC50) assay, alamarBlue", "type": "cell-based", "details": "B-ALL", "protocol": "as §1"}, "[13]": {"system": "OCI-LY18", "assay": "In vitro cytotoxicity (IC50) assay, alamarBlue", "type": "cell-based", "details": "OCI-LY18, NHL GCB-DLBCL", "protocol": "as §1"}, "[14]": {"system": "RAJI", "assay": "In vitro cytotoxicity (IC50) assay, alamarBlue", "type": "cell-based", "details": "NHL B-Cell Burkitt", "protocol": "as §1"}, "[15]": {"system": "OCI-LY8", "assay": "In vitro cytotoxicity (IC50) assay, alamarBlue", "type": "cell-based", "details": "OCI-LY8, NHL GCB-DLBCL", "protocol": "as §1"}, "[16]": {"system": "DAUDI", "assay": "In vitro cytotoxicity (IC50) assay, alamarBlue", "type": "cell-based", "details": "NHL B-Cell Burkitt", "protocol": "as §1"}, "[17]": {"system": "OCI-AML3", "assay": "In vitro cytotoxicity (IC50) assay, alamarBlue", "type": "cell-based", "details": "OCI-AML3, AML M4", "protocol": "as §1"}, "[18]": {"system": "OCI-AML4", "assay": "In vitro cytotoxicity (IC50) assay, alamarBlue", "type": "cell-based", "details": "OCI-AML4, AML M4", "protocol": "as §1"}, "[19]": {"system": "K-562", "assay": "In vitro cytotoxicity (IC50) assay, alamarBlue", "type": "cell-based", "details": "K-562, CML", "protocol": "as §1"}, "[20]": {"system": "NALM-6", "assay": "In vitro cytotoxicity (IC50) assay, alamarBlue", "type": "cell-based", "details": "NALM-6, B-ALL", "protocol": "as §1"}, "[21]": {"system": "OCI-LY3", "assay": "In vitro cytotoxicity (IC50) assay, alamarBlue", "type": "cell-based", "details": "OCI-LY3, NHL ABC-DLCBL", "protocol": "as §1"}, "[22]": {"system": "SU-DHL-8", "assay": "In vitro cytotoxicity (IC50) assay, alamarBlue", "type": "cell-based", "details": "SU-DHL-8, NHL DLBCL", "protocol": "as §1"}, "[23]": {"system": "cancer cells", "assay": "Compound (I) treatment of cancer cells (FIG. 1)", "type": "cell-based", "protocol": "as §1"}, "[24]": {"details": "Homo sapiens, 72 h, 3 days, read-out: Compound (I) IC50"}}, "data": [{"smiles": "COc1ccc2c(c1)[C@]1(C[C@H]1c1ccc3c(/C=C/c4ccc(CN5C[C@@H](C)O[C@@H](C)C5)cc4)n[nH]c3c1)C(=O)N2", "note": "[Compound (I), (1R,2S)-2-(3-((E)-4-(((2S,6R)-2,6-dimethylmorpholino)methyl)styryl)-1H-indazol-6-yl)-5′-methoxyspiro[cyclopropane-1,3′-indolin]-2′-one]", "values": [{"measurement": "dose limiting toxicity (DLT)", "setting": "[1]; 128 mg dose level, orally once daily", "result": "colitis"}, {"measurement": "patients with stable disease", "setting": "[1]; 3 of six evaluable patients, 64 mg to 128 mg orally once daily", "result": 50, "unit": "%"}, {"measurement": "effect on outcome of a patient", "setting": "[1]; a patient with CK AML", "result": "positively affected the outcome"}, {"measurement": "reduction in marrow blast count", "setting": "[1]; one patient with stable disease", "result": 78, "unit": "%"}, {"measurement": "single agent clinical activity", "setting": "[1]; patients with poor risk AML", "result": "has activity"}, {"measurement": "patients achieving complete remission (CR)", "setting": "[1]; two of six evaluable patients, 64 mg to 128 mg orally once daily", "result": 33, "unit": "%"}, {"measurement": "IC50", "setting": "[2]; [24]", "result": 0.7, "unit": "nM"}, {"measurement": "Response to Compound (I)", "setting": "[2]", "result": "death"}, {"measurement": "Response to Compound (I)", "setting": "[3]", "result": "mitotic defects +"}, {"measurement": "IC50", "setting": "[4]; [24]", "result": 0.6, "unit": "nM"}, {"measurement": "Response to Compound (I)", "setting": "[4]", "result": "death"}, {"measurement": "Response to Compound (I)", "setting": "[5]", "result": "death"}, {"measurement": "IC50", "setting": "[5]; [24]", "result": 8.4, "unit": "nM"}, {"measurement": "IC50", "setting": "[6]; [24]", "result": 6.8, "unit": "nM"}, {"measurement": "Response to Compound (I)", "setting": "[6]", "result": "death"}, {"measurement": "IC50", "setting": "[7]; [24]", "result": 2.2, "unit": "nM"}, {"measurement": "Response to Compound (I)", "setting": "[7]", "result": "death"}, {"measurement": "Response to Compound (I)", "setting": "[8]", "result": "mitotic defects +"}, {"measurement": "Response to Compound (I)", "setting": "[9]", "result": "mitotic defects +"}, {"measurement": "IC50", "setting": "[10]; [24]", "result": 1.4, "unit": "nM"}, {"measurement": "Response to Compound (I)", "setting": "[10]", "result": "death"}, {"measurement": "Response to Compound (I)", "setting": "[11]", "result": "mitotic defects +"}, {"measurement": "Response to Compound (I)", "setting": "[12]", "result": "death"}, {"measurement": "IC50", "setting": "[12]; [24]", "result": 5.1, "unit": "nM"}, {"measurement": "Response to Compound (I)", "setting": "[13]", "result": "mitotic defects +"}, {"measurement": "IC50", "setting": "[14]; [24]", "result": 0.1, "unit": "nM"}, {"measurement": "Response to Compound (I)", "setting": "[14]", "result": "death"}, {"measurement": "Response to Compound (I)", "setting": "[15]", "result": "mitotic defects +"}, {"measurement": "IC50", "setting": "[16]; [24]", "result": 0.2, "unit": "nM"}, {"measurement": "Response to Compound (I)", "setting": "[16]", "result": "death"}, {"measurement": "Response to Compound (I)", "setting": "[17]", "result": "mitotic defects +"}, {"measurement": "Response to Compound (I)", "setting": "[18]", "result": "mitotic defects +"}, {"measurement": "Response to Compound (I)", "setting": "[19]", "result": "mitotic defects +"}, {"measurement": "Response to Compound (I)", "setting": "[20]", "result": "mitotic defects +"}, {"measurement": "Response to Compound (I)", "setting": "[21]", "result": "mitotic defects +"}, {"measurement": "IC50", "setting": "[22]; [24]", "result": 12, "unit": "nM"}, {"measurement": "Response to Compound (I)", "setting": "[22]", "result": "death"}, {"measurement": "effect of treatment on cancer cells", "setting": "[23]", "result": "aberrant mitoses leading to death or arrest"}]}]}
